From patent US7601686B2, “Hepatitis C virus inhibitors” (Bristol-Myers Squibb Company, priority 2005, dated 2009)
Like-named read-outs stand apart in the source and are kept apart here.

Legend:
[1] = biological target: T1, HCV NS3/4A protease complex, BMS strain (UniProt P27958, species not given/STRAIN_BMS); experiment: FRET peptide assay to monitor HCV NS3/4A proteolytic activity (BMS strain); type: biochemical, Hepatitis C virus (genotype 1a)
T1 construct: DNA encoding the recombinant HCV NS3/4A protease complex (amino acids 1027 to 1711) for these strains [H77 and J4L6S]; fused on or other part: For the H77 and J4L6S constructs, a three-lysine solubilising tail at the NS4A C-terminus and a Ni-NTA-purifiable tag from pET21b
Excerpt: Generation of Recombinant HCV NS3/4A Protease Complex
HCV NS3 protease complexes, derived from the BMS strain, H77 strain or J4L6S strain, were generated, as described below. These purified recombinant proteins were generated for use in a homogeneous assay (see below) to provide an indication of how effective compounds of the present disclosure would be in inhibiting HCV NS3 proteolytic activity.
Serum from an HCV-infected patient was obtained from Dr. T. Wright, San Francisco Hospital. An engineered full-length cDNA (compliment deoxyribonucleic acid) template of the HCV genome (BMS strain) was constructed from DNA fragments obtained by reverse transcription-PCR (RT-PCR) of serum RNA (ribonucleic acid) and using primers selected on the basis of homology between other genotype 1a strains. From the determination of the entire genome sequence, a genotype 1a was assigned to the HCV isolate according to the classification of Simmonds et al. (See P Simmonds, K A Rose, S Graham, S W Chan, F McOmish, B C Dow, E A Follett, P L Yap and H Marsden, J. Clin. Microbiol., 31(6), 1493-1503 (1993)). […] The infectious clones, H77 (1a genotype) and J4L6S (1b genotype) were obtained from R. Purcell (NIH) and the sequences are published in Genbank (AAB67036, see Yanagi, M., Purcell, R. H., Emerson, S. U. and Bukh, J. Proc. Natl. Acad. Sci. U.S.A. 94(16), 8738-8743 (1997); AF054247, see Yanagi, M., St Claire, M., Shapiro, M., Emerson, S. U., Purcell, R. H. and Bukh, J, Virology 244 (1), 161-172. (1998)).
The H77 and J4L6S strains were used for production of recombinant NS3/4A protease complexes. DNA encoding the recombinant HCV NS3/4A protease complex (amino acids 1027 to 1711) for these strains were manipulated as described by P. Gallinari et al. (see Gallinari P, Paolini C, Brennan D, Nardi C, Steinkuhler C, De Francesco R. Biochemistry. 38(17):5620-32, (1999)). Briefly, a three-lysine solubilizing tail was added at the 3′-end of the NS4A coding region. The cysteine in the P1 position of the NS4A-NS4B cleavage site (amino acid 1711) was changed to a glycine to avoid the proteolytic cleavage of the lysine tag. Furthermore, a cysteine to serine mutation was introduced by PCR at amino acid position 1454 to prevent the autolytic cleavage in the NS3 helicase domain. The variant DNA fragment was cloned in the pET21b bacterial expression vector (Novagen) and the NS3/4A complex was expressed in Escherichia coli strain BL21 (DE3) (Invitrogen) following the protocol described by P. Gallinari et al. (see Gallinari P, Brennan D, Nardi C, Brunetti M, Tomei L, Steinkuhler C, De Francesco R., J. Virol. 72(8):6758-69 (1998)) with modifications. Briefly, the NS3/4A protease complex expression was induced with 0.5 millimolar (mM) Isopropyl β-D-1-thiogalactopyranoside (IPTG) for 22 hours (h) at 20° C. A typical fermentation (1 Liter (L)) yielded approximately 10 grams (g) of wet cell paste. The cells were resuspended in lysis buffer (10 mL/g) consisting of 25 mM N-(2-Hydroxyethyl)piperazine-N′-(2-Ethane Sulfonic acid) (HEPES), pH 7.5, 20% glycerol, 500 mM Sodium Chloride (NaCl), 0.5% Triton X-100, 1 microgram/milliliter (“μg/mL”) lysozyme, 5 mM Magnesium Chloride (MgCl2), 1 μg/mL DnaseI, 5 mM β-Mercaptoethanol (βME), Protease inhibitor—Ethylenediamine Tetraacetic acid (EDTA) free (Roche), homogenized and incubated for 20 minutes (min) at 4° C. The homogenate was sonicated and clarified by ultra-centrifugation at 235000 g for 1 h at 4° C. Imidazole was added to the supernatant to a final concentration of 15 mM and the pH adjusted to 8.0. The crude protein extract was loaded on a Nickel—Nitrilotriacetic acid (Ni-NTA) column pre-equilibrated with buffer B (25 mM HEPES, pH 8.0, 20% glycerol, 500 mM NaCl, 0.5% Triton X-100, 15 mM imidazole, 5 mM βME). The sample was loaded at a flow rate of 1 mL/min. The column was washed with 15 column volumes of buffer C (same as buffer B except with 0.2% Triton X-100). […]

[2] = system: HCV replicon in HUH-7 cells; experiment: HCV replicon FRET assay; type: cell-based, Hepatitis C virus (strain 1b); settings: HCV replicon cell assay, HUH-7, read-out: EC50 Range
Excerpt: Generation of HCV Replicon
An HCV replicon whole cell system was established as described by Lohmann V, Korner F, Koch J, Herian U, Theilmann L, Bartenschlager R., Science 285(5424):110-3 (1999). This system enabled us to evaluate the effects of our HCV Protease compounds on HCV RNA replication. Briefly, using the HCV strain 1b sequence described in the Lohmann paper (Assession number:AJ238799), an HCV cDNA was synthesized by Operon Technologies, Inc. (Alameda, Calif.), and the full-length replicon was then assembled in plasmid pGem9zf(+) (Promega, Madison, Wis.) using standard molecular biology techniques. The replicon consists of (i) the HCV 5′ UTR fused to the first 12 amino acids of the capsid protein, (ii) the neomycin phosphotransferase gene (neo), (iii) the IRES from encephalomyocarditis virus (EMCV), and (iv) HCV NS3 to NS5B genes and the HCV 3′ UTR. Plasmid DNAs were linearized with ScaI and RNA transcripts were synthesized in vitro using the T7 MegaScript transcription kit (Ambion, Austin, Tex.) according to manufacturer's directions. In vitro transcripts of the cDNA were transfected into the human hepatoma cell line, HUH-7. […] Resulting cell lines were characterized for positive and negative strand RNA production and protein production over time.
The HCV replicon FRET assay was developed to monitor the inhibitory effects of compounds described in the disclosure on HCV viral replication. HUH-7 cells, constitutively expressing the HCV replicon, were grown in Dulbecco's Modified Eagle Media (DMEM) (Gibco-BRL) containing 10% Fetal calf serum (FCS) (Sigma) and 1 mg/mL G418 (Gibco-BRL). Cells were seeded the night before (1.5×10^4 cells/well) in 96-well tissue-culture sterile plates. Compound and no compound controls were prepared in DMEM containing 4% FCS, 1:100 Penicillin/Streptomysin (Gibco-BRL), 1:100 L-glutamine and 5% DMSO in the dilution plate (0.5% DMSO final concentration in the assay). Compound/DMSO mixes were added to the cells and incubated for 4 days at 37° C. After 4 days, cells were first assessed for cytotoxicity using alamar Blue (Trek Diagnotstic Systems) for a CC50 reading. The toxicity of compound (CC50) was determined by adding 1/10th volume of alamar Blue to the media incubating the cells. After 4 h, the fluorescence signal from each well was read, with an excitation wavelength at 530 nm and an emission wavelength of 580 nm, using the Cytofluor Series 4000 (Perspective Biosystems). Plates were then rinsed thoroughly with Phosphate-Buffered Saline (PBS) (3 times 150 μl).

[3] = NS3/4A BMS strain, enzyme assay; read-out: IC 50 Range

T1 sequence (P27958 1027-1657, stated change not applied, one chain of several): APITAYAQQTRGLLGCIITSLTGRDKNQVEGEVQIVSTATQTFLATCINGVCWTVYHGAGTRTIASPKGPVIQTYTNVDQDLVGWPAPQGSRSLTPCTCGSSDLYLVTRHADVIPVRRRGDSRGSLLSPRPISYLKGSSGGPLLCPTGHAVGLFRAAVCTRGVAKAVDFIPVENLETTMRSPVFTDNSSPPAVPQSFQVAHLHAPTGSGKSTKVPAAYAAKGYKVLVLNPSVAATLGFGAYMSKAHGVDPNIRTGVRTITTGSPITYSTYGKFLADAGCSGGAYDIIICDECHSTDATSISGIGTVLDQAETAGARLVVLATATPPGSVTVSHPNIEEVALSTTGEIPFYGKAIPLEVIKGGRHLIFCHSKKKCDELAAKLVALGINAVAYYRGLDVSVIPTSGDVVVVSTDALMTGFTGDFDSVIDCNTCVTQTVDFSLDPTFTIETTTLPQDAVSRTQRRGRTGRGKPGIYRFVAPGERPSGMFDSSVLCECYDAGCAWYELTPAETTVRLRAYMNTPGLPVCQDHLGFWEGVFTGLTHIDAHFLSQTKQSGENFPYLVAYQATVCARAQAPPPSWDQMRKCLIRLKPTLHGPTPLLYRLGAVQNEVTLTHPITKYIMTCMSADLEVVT

C=CC1CC1(NC(=O)[C@@H]1C[C@@H](NC(=O)c2cc(Cl)nc3ccccc23)CN1C(=O)[C@@H](NC(=O)CC1CC1)C(C)(C)C)C(=O)NS(=O)(=O)C1CC1 (stereo partly shown) [Compound 13]
IC50 [1, 3]: 150 to 15000 nM | EC50 ([2]; Hepatitis C virus): > 15000 nM

C=CC1CC1(NC(=O)[C@@H]1C[C@@H](NC(=O)c2ccncc2)CN1C(=O)[C@@H](NC(=O)CC1CC1)C(C)(C)C)C(=O)NS(=O)(=O)C1CC1 (stereo partly shown) [Compound 14]
IC50 [1, 3]: 150 to 15000 nM | EC50 ([2]; Hepatitis C virus): > 15000 nM

C=CC1CC1(NC(=O)[C@@H]1C[C@@H](NC(=O)c2cccc3ccccc23)CN1C(=O)[C@@H](NC(=O)CC1CC1)C(C)(C)C)C(=O)NS(=O)(=O)C1CC1 (stereo partly shown) [Compound 16]
IC50 [1, 3]: < 150 nM | EC50 ([2]; Hepatitis C virus): > 15000 nM

C=CC1CC1(NC(=O)[C@@H]1C[C@@H](NC(=O)c2c(C)nc3ccccn23)CN1C(=O)[C@@H](NC(=O)CC1CC1)C(C)(C)C)C(=O)NS(=O)(=O)C1CC1 (stereo partly shown) [Compound 17]
IC50 [1, 3]: < 150 nM | EC50 ([2]; Hepatitis C virus): > 15000 nM

C=CC1CC1(NC(=O)[C@@H]1C[C@@H](NC(=O)c2c(C)nc3ccccn23)CN1C(=O)[C@@H](NC(=O)CC1CC1)C(C)(C)C)C(=O)NS(=O)(=O)C1CC1 (stereo partly shown) [Compound 18]
IC50 [1, 3]: 150 to 15000 nM | EC50 [2]: > 15000 nM

C=CC1CC1(NC(=O)[C@@H]1C[C@@H](NC(=O)c2cn(C)c3ccccc23)CN1C(=O)[C@@H](NC(=O)CC1CC1)C(C)(C)C)C(=O)NS(=O)(=O)C1CC1 (stereo partly shown) [Compound 19]
IC50 ([1]; read-out: IC 50 Range; NS3/4A BMS strain, enzyme assay): < 150 nM | EC50 ([2]; Hepatitis C virus): > 15000 nM

C=CC1CC1(NC(=O)[C@@H]1C[C@@H](NC(=O)c2c(C)nc3sccn23)CN1C(=O)[C@@H](NC(=O)CC1CC1)C(C)(C)C)C(=O)NS(=O)(=O)C1CC1 (stereo partly shown) [Compound 20]
IC50 [1, 3]: < 150 nM | EC50 ([2]; Hepatitis C virus): > 15000 nM

C=CC1CC1(NC(=O)[C@@H]1C[C@@H](NC(=O)c2c(-c3ccc(Cl)cc3)cn3ccccc23)CN1C(=O)[C@@H](NC(=O)CC1CC1)C(C)(C)C)C(=O)NS(=O)(=O)C1CC1 (stereo partly shown) [Compound 21]
IC50 [1, 3]: < 150 nM | EC50 ([2]; Hepatitis C virus): 150 to 15000 nM

C=CC1CC1(NC(=O)[C@@H]1C[C@@H](NC(=O)c2cnc3c(c(C)nn3C)c2Cl)CN1C(=O)[C@@H](NC(=O)CC1CC1)C(C)(C)C)C(=O)NS(=O)(=O)C1CC1 (stereo partly shown) [Compound 22]
IC50 [1, 3]: < 150 nM | EC50 ([2]; Hepatitis C virus): > 15000 nM

C=CC1CC1(NC(=O)[C@@H]1C[C@@H](NC(=O)c2nccc3ccccc23)CN1C(=O)[C@@H](NC(=O)CC1CC1)C(C)(C)C)C(=O)NS(=O)(=O)C1CC1 (stereo partly shown) [Compound 24]
IC50 [1, 3]: 150 to 15000 nM | EC50 ([2]; Hepatitis C virus): > 15000 nM

C=CC1CC1(NC(=O)[C@@H]1C[C@@H](NC(=O)c2ccc3ccccc3n2)CN1C(=O)[C@@H](NC(=O)CC1CC1)C(C)(C)C)C(=O)NS(=O)(=O)C1CC1 (stereo partly shown) [Compound 25]
IC50 [1, 3]: < 150 nM | EC50 ([2]; Hepatitis C virus): 150 to 15000 nM

C=CC1CC1(NC(=O)[C@@H]1C[C@@H](NC(=O)c2cc3ccccc3n2C)CN1C(=O)[C@@H](NC(=O)CC1CC1)C(C)(C)C)C(=O)NS(=O)(=O)C1CC1 (stereo partly shown) [Compound 26]
IC50 [1, 3]: < 150 nM | EC50 ([2]; Hepatitis C virus): 150 to 15000 nM

C=CC1CC1(NC(=O)[C@@H]1C[C@@H](NC(=O)c2cc3ccccc3o2)CN1C(=O)[C@@H](NC(=O)CC1CC1)C(C)(C)C)C(=O)NS(=O)(=O)C1CC1 (stereo partly shown) [Compound 27]
IC50 [1, 3]: < 150 nM | EC50 ([2]; Hepatitis C virus): 150 to 15000 nM

C=CC1CC1(NC(=O)[C@@H]1C[C@@H](NC(=O)c2cc3ccccc3cn2)CN1C(=O)[C@@H](NC(=O)CC1CC1)C(C)(C)C)C(=O)NS(=O)(=O)C1CC1 (stereo partly shown) [Compound 28]
IC50 [1, 3]: < 150 nM | EC50 ([2]; Hepatitis C virus): 150 to 15000 nM

C=CC1CC1(NC(=O)[C@@H]1C[C@@H](NC(=O)c2sc3ccccc3c2Cl)CN1C(=O)[C@@H](NC(=O)CC1CC1)C(C)(C)C)C(=O)NS(=O)(=O)C1CC1 (stereo partly shown) [Compound 29]
IC50 [1, 3]: < 150 nM | EC50 ([2]; Hepatitis C virus): 150 to 15000 nM

C=CC1CC1(NC(=O)[C@@H]1C[C@@H](NC(=O)c2cccc3c2OCC3)CN1C(=O)[C@@H](NC(=O)CC1CC1)C(C)(C)C)C(=O)NS(=O)(=O)C1CC1 (stereo partly shown) [Compound 30]
IC50 [1, 3]: 150 to 15000 nM | EC50 ([2]; Hepatitis C virus): > 15000 nM

C=CC1CC1(NC(=O)[C@@H]1C[C@@H](NC(=O)c2cccc3cccnc23)CN1C(=O)[C@@H](NC(=O)CC1CC1)C(C)(C)C)C(=O)NS(=O)(=O)C1CC1 (stereo partly shown) [Compound 31]
IC50 [1, 3]: < 150 nM | EC50 ([2]; Hepatitis C virus): 150 to 15000 nM
